Molecular target: T1, cPLA2 (Homo sapiens, UniProt P47712)
T1 sequence (P47712 1-749): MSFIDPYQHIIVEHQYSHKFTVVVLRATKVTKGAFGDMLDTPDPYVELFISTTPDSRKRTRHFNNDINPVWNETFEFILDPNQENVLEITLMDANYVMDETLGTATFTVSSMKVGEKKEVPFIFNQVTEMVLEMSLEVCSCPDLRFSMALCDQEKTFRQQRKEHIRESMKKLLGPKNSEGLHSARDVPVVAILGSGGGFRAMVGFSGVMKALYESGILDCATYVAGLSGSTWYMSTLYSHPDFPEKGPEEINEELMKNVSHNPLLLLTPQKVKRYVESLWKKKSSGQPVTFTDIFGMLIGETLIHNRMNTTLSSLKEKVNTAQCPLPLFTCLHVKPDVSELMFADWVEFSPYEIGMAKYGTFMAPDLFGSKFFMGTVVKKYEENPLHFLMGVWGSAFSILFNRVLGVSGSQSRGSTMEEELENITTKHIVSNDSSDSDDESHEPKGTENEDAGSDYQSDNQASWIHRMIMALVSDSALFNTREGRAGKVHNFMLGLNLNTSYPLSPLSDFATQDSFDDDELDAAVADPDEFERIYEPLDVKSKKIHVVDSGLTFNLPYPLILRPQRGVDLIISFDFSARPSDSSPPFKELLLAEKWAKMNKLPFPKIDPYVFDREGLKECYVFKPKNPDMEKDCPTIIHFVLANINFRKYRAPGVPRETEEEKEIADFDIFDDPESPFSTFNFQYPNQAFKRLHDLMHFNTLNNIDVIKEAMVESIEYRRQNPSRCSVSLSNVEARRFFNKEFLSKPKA
Test: Coumarine Assay
Type: biochemical
Details: 60 μM 7-hydroxycoumarinyl 6-heptenoate substrate, 4 μg cPLA2, pH 7.5, fluorescence ex 360 nm / em 460 nm; read-out: Coumarin IC50

SMILES	IC50 [nM]
O=C(O)c1ccc(OCCc2c(CCNS(=O)(=O)CCn3ncnn3)n(C(c3ccccc3)c3ccccc3)c3ccc(Cl)cc23)cc1 [Example 103, 4-(2-{1-benzhydryl-5-chloro-2-[2-(2-tetrazol-2-yl-ethanesulfonylamino)-ethyl]-1H-indol-3-yl}ethoxy)benzoic acid]	1100
O=C(O)c1ccc(OCCc2c(CCNS(=O)(=O)CCn3cnnn3)n(C(c3ccccc3)c3ccccc3)c3ccc(Cl)cc23)cc1 [Example 104, 4-(2-{1-benzhydryl-5-chloro-2-[2-(2-tetrazol-1-yl-ethanesulfonylamino)-ethyl]-1H-indol-3-yl}ethoxy)benzoic acid]	1100
O=C(O)c1ccc(OCCc2c(CCNS(=O)(=O)Cc3ccsc3)n(C(c3ccccc3)c3ccccc3)c3ccc(Cl)cc23)cc1 [Example 112, 4-{2-[1-Benzhydryl-5-chloro-2-(2-{[(3-thienylmethyl)sulfonyl]amino}ethyl)-1H-indol-3-yl]ethoxy}benzoic acid]	1200
CC1CCCN1CCS(=O)(=O)NCCc1c(CCOc2ccc(C(=O)O)cc2)c2cc(Cl)ccc2n1C(c1ccccc1)c1ccccc1 (stereo not shown) [Example 113, 4-[2-(1-Benzhydryl-5-chloro-2-{2-[2-(2-methyl-pyrrolidin-1-yl)-ethanesulfonylamino]-ethyl}-1H-indol-3-yl)-ethoxy]-benzoic acid]	1300
CC1CCCCN1CCS(=O)(=O)NCCc1c(CCOc2ccc(C(=O)O)cc2)c2cc(Cl)ccc2n1C(c1ccccc1)c1ccccc1 (stereo not shown) [Example 114, 4-[2-(1-Benzhydryl-5-chloro-2-{2-[2-(2-methyl-piperidin-1-yl)-ethanesulfonylamino]-ethyl}-1H-indol-3-yl)-ethoxy]-benzoic acid]	1100
CC1CCC(C)N1CCS(=O)(=O)NCCc1c(CCOc2ccc(C(=O)O)cc2)c2cc(Cl)ccc2n1C(c1ccccc1)c1ccccc1 (stereo not shown) [Example 115, 4-[2-(1-Benzhydryl-5-chloro-2-{2-[2-(2,5-dimethyl-pyrrolidin-1-yl)-ethanesulfonylamino]-ethyl}-1H-indol-3-yl)-ethoxy]-benzoic acid]	900
O=C(O)c1ccc(OCCc2c(CCNS(=O)(=O)CCN3CCCCC3)n(C(c3ccccc3)c3ccccc3)c3ccc(Cl)cc23)cc1 [Example 117]	1600
O=C(O)c1ccc(OCCc2c(CCNS(=O)(=O)CCN3CCC(O)C3)n(C(c3ccccc3)c3ccccc3)c3ccc(Cl)cc23)cc1 (stereo not shown) [Example 122, 4-[2-(1-benzhydryl-5-chloro-2-{2-[2-(3-hydroxy-pyrrolidine-1-yl)-ethanesulfonylamino]-ethyl}-1H-indol-3-yl)-ethoxy]-benzoic acid]	2500
O=C(O)c1ccc(OCCc2c(CCNS(=O)(=O)CCN3CCC(O)CC3)n(C(c3ccccc3)c3ccccc3)c3ccc(Cl)cc23)cc1 [Example 123, 4-[2-(1-Benzhydryl-5-chloro-2-{2-[2-(4-hydroxy-piperidin-1-yl)-ethanesulfonylamino]-ethyl}-1H-indol-3-yl)-ethoxy]-benzoic acid]	1700
CN(C)CC1CCCCN1CCS(=O)(=O)NCCc1c(CCOc2ccc(C(=O)O)cc2)c2cc(Cl)ccc2n1C(c1ccccc1)c1ccccc1 (stereo not shown) [Example 124, 4-[2-(1-Benzhydryl-5-chloro-2-{2-[2-(2-dimethylaminomethyl-piperidin-1-yl)-ethanesulfonylamino]-ethyl}-1H-indol-3-yl)-ethoxy]-benzoic acid]	800

The next molecules have a lower IC50 than those just listed; values first:

IC50 [nM]	SMILES
100	CC1CCCC(C)N1CCS(=O)(=O)NCCc1c(CCCc2ccc(C(=O)O)cc2)c2cc(Cl)ccc2n1C(c1ccccc1)c1ccccc1 (stereo not shown) [Example 101, 4-[3-(1-Benzhydryl-5-chloro-2-{2-[2-(2,6-dimethyl-piperidin-1-yl)-ethanesulfonylamino]-ethyl}-1H-indol-3-yl)-propyl]-benzoic acid]
190	Cc1cc(C)n(CCS(=O)(=O)NCCc2c(CCCc3ccc(C(=O)O)cc3)c3cc(Cl)ccc3n2C(c2ccccc2)c2ccccc2)n1 [Example 102]
220	O=C(O)c1ccc(OCCc2c(CCNS(=O)(=O)Cc3ccc(Cl)c(Cl)c3)n(C(c3ccccc3)c3ccccc3)c3cc(Cl)ccc23)cc1 [Example 106, 4-(2-{1 -Benzhydryl-6-chloro-2-[2-(3,4-dichloro-phenylmethanesulfonylamino)-ethyl]-1H-indol-3-yl}-ethoxy)-benzoic acid]
330	O=C(O)c1ccc(OCCc2c(CCNS(=O)(=O)Cc3cc(Cl)cc(Cl)c3)n(C(c3ccccc3)c3ccccc3)c3cc(Cl)ccc23)cc1 [Example 107, 4-[2-{1-Benzhydryl-6-chloro-2-[2-(3,5-dichloro-phenylmethanesulfonylamino)-ethyl]-1H-indol-3-yl}-ethoxy)-benzoic acid]
150	N#Cc1ccccc1CS(=O)(=O)NCCc1c(CCOc2ccc(C(=O)O)cc2)c2cc(Cl)ccc2n1C(c1ccccc1)c1ccccc1 [Example 108, 4-{2-[1-Benzhydryl-5-chloro-2-(2-{[(2-cyanobenzyl)sulfonyl]amino}ethyl)-1H-indol-3-yl]ethoxy}benzoic acid]
400	O=C(O)c1ccc(OCCc2c(CCNS(=O)(=O)CC3CCCCO3)n(C(c3ccccc3)c3ccccc3)c3ccc(Cl)cc23)cc1 (stereo not shown) [Example 109, 4-{2-[1-Benzhydryl-5-chloro-2-(2-{[(tetrahydro-2H-pyran-2-ylmethyl)sulfonyl]amino}ethyl)-1H-indol-3-yl]ethoxy}benzoic acid]
500	O=C(O)c1ccc(OCCc2c(CCNS(=O)(=O)Cc3nc4ccccc4o3)n(C(c3ccccc3)c3ccccc3)c3ccc(Cl)cc23)cc1 [Example 110, 4-{2-[1-Benzhydryl-2-(2-{[(1,3-benzoxazol-2-ylmethyl)sulfonyl]amino}ethyl)-5-chloro-1H-indol-3-yl]ethoxy}benzoic acid]
400	Cc1ccccc1SCS(=O)(=O)NCCc1c(CCOc2ccc(C(=O)O)cc2)c2cc(Cl)ccc2n1C(c1ccccc1)c1ccccc1 [Example 118, 4-{2-[1-benzhydryl-5-chloro-2-(2-o-tolylsulfanylmethanesulfonylamino-ethyl)-1H-indol-3-yl]-ethoxy}-benzoic acid]
400	O=C(O)c1ccc(OCCc2c(CCNS(=O)(=O)CSc3ccccc3Cl)n(C(c3ccccc3)c3ccccc3)c3ccc(Cl)cc23)cc1 [Example 119]
400	O=C(O)c1ccc(OCCc2c(CCNS(=O)(=O)CSc3c(Cl)cccc3Cl)n(C(c3ccccc3)c3ccccc3)c3ccc(Cl)cc23)cc1 [Example 120, 4-(2-{1-benzhydryl-5-chloro-2-[2-(2,6-dichloro-phenylsulfanylmethanesulfonylamino)-ethyl]-1H-indol-3-yl}-ethoxy)-benzoic acid]
460	COc1ccc(OC)c(SCS(=O)(=O)NCCc2c(CCOc3ccc(C(=O)O)cc3)c3cc(Cl)ccc3n2C(c2ccccc2)c2ccccc2)c1 [Example 121, 4-(2-{1-benzhydryl-5-chloro-2-[2-(2,5-dimethoxy-phenylsulfanylmethanesulfonylamino)-ethyl]-1H-indol-3-yl}-ethoxy)-benzoic acid]
200	O=C(O)c1ccc(CCCc2c(CCNS(=O)(=O)Cc3c(F)cccc3F)n(C(c3ccccc3)c3ccccc3)c3ccc(Cl)cc23)cc1 [Example 126, 4-{3-[1-benzhydryl-5-chloro-2-{2-([(2,6-difluorobenzyl)sulfonyl]amino}ethyl)-1H-indol-3-yl]propyl}benzoic acid]

— patent publication US6635771B2, “N-benzhydryl indole compounds” (Wyeth, priority 2001, dated 2003)
